Results as given in PubChem BioAssay AID1963425 (Molecular Pharmacology Branch, DTP, NCI, 2024).

Test system: 323965-272-R-J2-PDC complex spheroid growth, % test/control
Assay: Anticancer human tumor 323965-272-R-J2-PDC patient-derived pancreatic carcinoma cell line growth inhibition [Asc]
Settings: for IC50: curve of first compound; for viability, T/C: stronger effect = lower value; active means viability on the fitted dose curve at most 10% of control; inactive means the rest
Outline: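 Complex solid-tumor spheroids incorporating human endothelial and mesenchymal stem cells received single agents or combinations over half-log dilution ranges anchored to clinical Cmax.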

[1] = second compound 0.00316 µM, first compound 0.00949 µM
[2] = second compound 0.00316 µM, first compound 0.03 µM
[3] = second compound 0.00316 µM, first compound 0.0949 µM
[4] = second compound 0.00316 µM, first compound 0.3 µM
[5] = second compound 0.00316 µM, first compound 0.949 µM
[6] = second compound 0.00316 µM, first compound 3 µM
[7] = second compound 0.01 µM, first compound 0.00949 µM
[8] = second compound 0.01 µM, first compound 0.03 µM
[9] = second compound 0.01 µM, first compound 0.0949 µM
[10] = second compound 0.01 µM, first compound 0.3 µM
[11] = second compound 0.01 µM, first compound 0.949 µM
[12] = second compound 0.01 µM, first compound 3 µM
[13] = second compound 0.0316 µM, first compound 0.00949 µM
[14] = second compound 0.0316 µM, first compound 0.03 µM
[15] = second compound 0.0316 µM, first compound 0.0949 µM
[16] = second compound 0.0316 µM, first compound 0.3 µM
[17] = second compound 0.0316 µM, first compound 0.949 µM
[18] = second compound 0.0316 µM, first compound 3 µM
[19] = second compound 0.1 µM, first compound 0.00949 µM
[20] = second compound 0.1 µM, first compound 0.03 µM
[21] = second compound 0.1 µM, first compound 0.0949 µM
[22] = second compound 0.1 µM, first compound 0.3 µM
[23] = second compound 0.1 µM, first compound 0.949 µM
[24] = second compound 0.1 µM, first compound 3 µM
[25] = second compound 0.316 µM, first compound 0.00949 µM
[26] = second compound 0.316 µM, first compound 0.03 µM
[27] = second compound 0.316 µM, first compound 0.0949 µM
[28] = second compound 0.316 µM, first compound 0.3 µM
[29] = second compound 0.316 µM, first compound 0.949 µM
[30] = second compound 0.316 µM, first compound 3 µM
[31] = second compound 1 µM, first compound 0.00949 µM
[32] = second compound 1 µM, first compound 0.03 µM
[33] = second compound 1 µM, first compound 0.0949 µM
[34] = second compound 1 µM, first compound 0.3 µM
[35] = second compound 1 µM, first compound 0.949 µM
[36] = second compound 1 µM, first compound 3 µM
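Further: compound exposure lasted 7 days starting three days after spheroid seeding.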
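Wherever viability, T/C is given: 100% = DMSO vehicle control wells with viability set relative to vehicle.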

CCN1C(C(=O)NC23CCC(C(=O)O)(CC2)CC3)C(c2cccc(Cl)c2F)C2(C(=O)Nc3cc(Cl)ccc32)C12CCCCC2 (centres undefined) + CNC(C)C(=O)NC1CN(S(=O)(=O)c2cccc(S(=O)(=O)N3CCC4CCC(C(=O)NC(c5ccccc5)c5ccccc5)N4C(=O)C(NC(=O)C(C)NC)C3)c2)CCC2CCC(C(=O)NC(c3ccccc3)c3ccccc3)N2C1=O
> 3 µM: IC50 (second compound 0.00316 µM) | IC50 (second compound 0.01 µM) | IC50 (second compound 0.0316 µM) | IC50 (second compound 0.1 µM) | IC50 (second compound 0.316 µM) | IC50 (second compound 1 µM)
inactive: viability, T/C [1] 107% | viability, T/C [2] 93.6% | viability, T/C [3] 98.2% | viability, T/C [4] 93.1% | viability, T/C [5] 105% | viability, T/C [6] 89.3% | viability, T/C [7] 110% | viability, T/C [8] 97.8% | viability, T/C [9] 101% | viability, T/C [10] 93.5% | viability, T/C [11] 97% | viability, T/C [12] 89.7% | viability, T/C [13] 99.9% | viability, T/C [14] 99.1% | viability, T/C [15] 105% | viability, T/C [16] 101% | viability, T/C [17] 92.2% | viability, T/C [18] 82.7% | viability, T/C [19] 116% | viability, T/C [20] 97.7% | viability, T/C [21] 97.8% | viability, T/C [22] 104% | viability, T/C [23] 87.5% | viability, T/C [24] 83.9% | viability, T/C [25] 93% | viability, T/C [26] 81.6% | viability, T/C [27] 94.8% | viability, T/C [28] 93.3% | viability, T/C [29] 95.7% | viability, T/C [30] 86.2% | viability, T/C [31] 90.8% | viability, T/C [32] 87.6% | viability, T/C [33] 94.7% | viability, T/C [34] 85.5% | viability, T/C [35] 89.5% | viability, T/C [36] 76.6%

Cc1nc(N2CCC3(CC2)COC(C)C3N)c(CO)nc1Sc1ccnc(N)c1Cl (centres undefined) + CNC(C)C(=O)NC1CN(S(=O)(=O)c2cccc(S(=O)(=O)N3CCC4CCC(C(=O)NC(c5ccccc5)c5ccccc5)N4C(=O)C(NC(=O)C(C)NC)C3)c2)CCC2CCC(C(=O)NC(c3ccccc3)c3ccccc3)N2C1=O
1.52 µM: IC50 (second compound 0.316 µM)
inactive: viability, T/C [1] 109% | viability, T/C [2] 84.6% | viability, T/C [3] 71.8% | viability, T/C [4] 55.7% | viability, T/C [5] 52.4% | viability, T/C [6] 43.9% | viability, T/C [7] 99.4% | viability, T/C [8] 94.3% | viability, T/C [9] 66% | viability, T/C [10] 62% | viability, T/C [11] 52.6% | viability, T/C [12] 47.7% | viability, T/C [13] 110% | viability, T/C [14] 97.4% | viability, T/C [15] 80% | viability, T/C [16] 58.1% | viability, T/C [17] 57.9% | viability, T/C [18] 49% | viability, T/C [19] 93.9% | viability, T/C [20] 96.6% | viability, T/C [21] 80.9% | viability, T/C [22] 65.6% | viability, T/C [23] 51.2% | viability, T/C [24] 47.4% | viability, T/C [25] 97.7% | viability, T/C [26] 85% | viability, T/C [27] 86.7% | viability, T/C [28] 60.5% | viability, T/C [29] 58.2% | viability, T/C [30] 42.3% | viability, T/C [31] 84.8% | viability, T/C [32] 80.4% | viability, T/C [33] 71.9% | viability, T/C [34] 62% | viability, T/C [35] 50.1% | viability, T/C [36] 39.8%
0.967 µM: IC50 (second compound 1 µM)
1 µM: IC50 (second compound 0.00316 µM)
> 3 µM: IC50 (second compound 0.01 µM) | IC50 (second compound 0.0316 µM)
1.48 µM: IC50 (second compound 0.1 µM)
